Experiment: Stress stability of the bulk agent and its mixtures with excipients (degradation products by HPLC)
Type: physicochemical
Procedure: The bulk agent is subjected to stress conditions, such as elevated temperature (40° C. and above), elevated humidity (75% or higher relative humidity, open dish conditions), oxygen atmosphere or solutions with different pH. An HPLC analysis, capable of resolving the agent and its degradation products is then employed, to quantify the amount (given as a mass percentage relative to the agent) of degradation products in the stressed samples. Good chromatographic resolution can be achieved on a C18 reversed phase column with acidic phosphate buffer and an increasing gradient of acetonitrile and tetrahydrofuran. Degradation products are quantified using UV detection at 242 nm. The reporting limit of the degradation products has been set at 0.05%. The % reported for HPLC analysis are in general area %.

[1] = aqueous solution of the agent, buffered to pH = 5 at room temperature (24 hours)
[2] = under oxygen at 60° C. for 14 days

Substance: (E)-7-[4-(4-fluorophenyl)-6-isopropyl-2-[methyl(methylsulfonyl)amino]pyrimidin-5-yl]-(3R, 5S)-3,5-dihydroxyhept-6-enoic acid hemicalcium salt [the agent]
- amount of lactone (%) [1]: 2.30%
- amount of oxidation product (%) [1]: <0.05%
- amount of lactone (%) [2]: 0.17%
- amount of oxidation product (%) [2]: 0.71%
